≈ marks a conversion by molar mass, not a printed value.
Key:
[1] = tested on: Rattus norvegicus; test: Antiinflammatory activity in rat assessed as reduction in xylene induced edema at 10 mg/kg, po by CPE test relative to control; format: functional; set-up: scale not given: the % may be the effect or the level left
[2] = tested on: Mycobacterium tuberculosis; test: Antimycobacterial activity against Mycobacterium tuberculosis H37Rv measured after 7 days; format: functional; settings: 168 h, time 7 day
[3] = tested on: Middle East respiratory syndrome-related coronavirus; test: Antiviral activity of Middle East respiratory syndrome coronavirus; format: functional, organism-based
[4] = target: DNA gyrase (Escherichia coli, UniProt P0AES4+P0AES6); test: Inhibition of Escherichia coli DNA gyrase supercoiling activity by Microplate Assay kit method; format: protein-complex assay
[5] = tested on: Plasmodium falciparum; test: Antimalarial activity against Plasmodium falciparum; format: functional, organism-based; settings: Plasmodium falciparum; read-out: IC50
[6] = tested on: Plasmodium falciparum; test: microbe, parasite or virus in culture
[7] = tested on: Mycobacterium tuberculosis; test: Antimycobacterial activity against Mycobacterium tuberculosis H37Rv by test tube dilution technique; format: functional
[8] = tested on: Enterococcus faecalis; test: Antibacterial activity against Enterococcus faecalis ATCC 29212 assessed as bacterial growth inhibition by double micro dilution method; format: functional
[9] = tested on: Staphylococcus aureus; test: Antibacterial activity against Staphylococcus aureus ATCC 25923 assessed as bacterial growth inhibition by double micro dilution method; format: functional
[10] = tested on: Acinetobacter haemolyticus; test: Antibacterial activity against Acinetobacter haemolyticus ATCC 19002 assessed as bacterial growth inhibition by double micro dilution method; format: functional
[11] = tested on: Escherichia coli; test: Antibacterial activity against Escherichia coli ATCC 25922 assessed as bacterial growth inhibition by double micro dilution method; format: functional
[12] = tested on: Pseudomonas aeruginosa; test: Antibacterial activity against Pseudomonas aeruginosa ATCC 27853 assessed as bacterial growth inhibition by double micro dilution method; format: functional
[13] = tested on: Klebsiella pneumoniae; test: Antibacterial activity against Klebsiella pneumoniae ATCC 13883 assessed as bacterial growth inhibition by double micro dilution method; format: functional
[14] = target: DNA topoisomerase II (Homo sapiens, UniProt P11388+Q02880); test: Inhibition of human Topoisomerase 2 incubated for 30 mins by ELISA assay; format: protein assay
[15] = tested on: MCF7; test: Anticancer activity against human MCF7 cells assessed a cell growth inhibition incubated for 48 hrs by SRB assay; format: functional, cell-based; settings: MCF7, 48 h
[16] = species: Mus musculus; test: Anticonvulsant activity in mouse assessed as MES-induced seizures measured after 30 mins; format: functional; settings: 0.5 h
[17] = species: Mus musculus; test: Antiseizure activity against ScPTZ-induced seizure in mouse; format: functional; settings: route sc
[18] = tested on: Rattus norvegicus; test: Antiinflammatory activity in rat assessed as reduction in carrageenan induced edema at 10 mg/kg, po measured after 4 to 5 hrs relative to control; format: functional; set-up: scale not given: the % may be the effect or the level left; settings: time 4-5 hrs
[19] = tested on: Plasmodium falciparum; test: Antimalarial activity against Chloroquine resistant Plasmodium falciparum W2; format: functional, organism-based
[20] = Protection index, ratio of TD50 for neurotoxicity in po dosed mouse to ED50 for anticonvulsant activity in ip dosed mouse; format: toxicity, organism-based; settings: in vivo, read-out: Ratio TD50/ED50
[21] = tested on: Mus musculus; test: Anticonvulsant activity in po dosed mouse assessed as MES-induced seizures; format: functional
[22] = tested on: DU-145; test: Anticancer activity against human DU-145 cells assessed as cell growth inhibition incubated for 48 hrs by MTT assay; format: functional, cell-based; settings: DU-145, 48 h
[23] = tested on: A549; test: Anticancer activity against human A549 cells assessed as cell growth inhibition incubated for 48 hrs by MTT assay; format: functional, cell-based; settings: A549, 48 h
[24] = tested on: BT-20; test: Anticancer activity against human BT-20 cells assessed as cell growth inhibition incubated for 48 hrs by MTT assay; format: functional, cell-based; settings: BT-20, 48 h
[25] = Anticancer activity against human SK-MEL-128 cells assessed as cell growth inhibition incubated for 48 hrs by MTT assay; format: functional, cell-based; settings: SK-MEL-128, 48 h
[26] = tested on: BT-20; test: Potency index, ratio of test compound IC50 to cisplatin IC50 for antiproliferative against human BT-20 cells; format: functional
[27] = tested on: Mus musculus; test: Anticonvulsant activity in ip dosed mouse; format: functional
[28] = Protection index, ratio of TD50 for neurotoxicity in ip dosed mouse to ED50 for anticonvulsant activity in ip dosed mouse; format: toxicity, organism-based; settings: in vivo, read-out: Ratio TD50/ED50
[29] = tested on: Staphylococcus aureus; test: Antibacterial activity against Staphylococcus aureus assessed as bacterial growth inhibition incubated for 16 hrs; format: functional
[30] = tested on: Candida albicans; test: Antifungal activity against Candida albicans assessed as fungal growth inhibition incubated for 16 hrs; format: functional
[31] = tested on: HCT-116; test: Anticancer activity against human HCT-116 cells assessed as cell growth inhibition
[32] = tested on: Mus musculus; test: Anticonvulsant activity in ip dosed mouse assessed as protection against PTZ-induced seizure; format: functional
[33] = tested on: Staphylococcus aureus; test: Antibacterial activity against Staphylococcus aureus 6538 assessed as bacterial growth inhibition incubated for 24 hrs; format: functional
[34] = tested on: Staphylococcus aureus; test: Antibacterial activity against Methicillin-resistant Staphylococcus aureus assessed as bacterial growth inhibition incubated for 24 hrs; format: functional
[35] = species: Rattus norvegicus; test: Bronchodilator activity in Sprague-Dawley rat; format: functional, organism-based

Fc1cc(Cl)cc(-c2nn3c(CN4c5ccccc5Sc5ccccc54)nnc3s2)c1
Activity [1]: 83.06%

O=[N+]([O-])c1ncn(CCCCNS(=O)(=O)c2scc(Cl)c2Cl)n1
MIC [2]: 1.56 µg/mL (≈ 3.9 µM)

Sc1nnc(NNc2ccc(Cl)cc2)n1NC1C=CCC1 (stereo unspecified)
IC50 [3]: 0.51 µM

CCn1cc(-c2nc(/N=C/c3ccc(Br)cc3)n[nH]2)c(=O)c2cc(Br)c(C)nc21
IC50 [4]: 6.22 µM

C=C[C@H]1CN2CC[C@H]1C[C@H]2[C@H](O)c1ccnc2ccc(OC)cc12 [QUININE]
IC50 [5]: 0.286 µM | IC50 [6]: 0.268 µg/mL (≈ 0.826 µM)

CCn1cc(-c2nc(/N=C/c3ccc(F)cc3)n[nH]2)c(=O)c2ccc(C)nc21
IC50 [4]: 9.75 µM

Fc1ccc(-c2nn3c(COc4cnccn4)nnc3s2)cc1
MIC [7]: 1 µg/mL (≈ 3.05 µM)

O=C(O)c1cn(C2CC2)c2cc(N3CCN(Cn4nc(CN5CCN(c6ccccc6)CC5)n(-c5ccccc5)c4=S)CC3)c(F)cc2c1=O
MIC [8]: 0.125 µg/mL (≈ 0.18 µM) | MIC [9]: 0.125 µg/mL (≈ 0.18 µM) | MIC [10]: 0.125 µg/mL (≈ 0.18 µM) | MIC [11]: 0.125 µg/mL (≈ 0.18 µM) | MIC [12]: 0.125 µg/mL (≈ 0.18 µM) | MIC [13]: 0.125 µg/mL (≈ 0.18 µM)

O=C(CSc1nc2ccccc2n2cnnc12)Nc1ccc(S(=O)(=O)Nc2nccs2)cc1
IC50 [14]: 1.1 µM

COc1ccccc1-n1c(S)nnc1-c1cc(S(N)(=O)=O)c(Cl)cc1N
IC50 [6]: 0.025 µg/mL (≈ 0.0607 µM)

CC/C(=C(\c1ccccc1)c1ccc(OCCN(C)C)cc1)c1ccccc1 [TAMOXIFEN]
IC50 [15]: 8.38 µg/mL (≈ 22.6 µM)

O=C(CSc1nc[nH]n1)Nc1nc2ccc(OCc3ccc(F)cc3)cc2s1
ED50 [16]: 54.8 mg/kg | ED50 [17]: 52.8 mg/kg

Clc1cccc(Cl)c1Nc1ccccc1Cc1nncn1Nc1nc2ccccc2s1
Activity [18]: 85.31%

COc1ccc(Nc2cc(C)nc3nc(C(F)(F)F)nn23)cc1
IC50 [19]: 0.023 µM

O=c1c2ccccc2n2cnnc2n1-c1ccc(Cl)cc1
selectivity ratio [20]: > 25.5 | ED50 [21]: 88 mg/kg

c1cncc(-c2nn3c(COc4cnccn4)nnc3s2)c1
MIC [7]: 0.4 µg/mL (≈ 1.28 µM)

Nn1c(Cc2ccccc2Br)nn(CC(=O)NNC(=O)c2cc3cc(Cl)cc(Cl)c3oc2=O)c1=O
IC50 [22]: 3.1 µg/mL (≈ 5.32 µM) | IC50 [23]: 3.1 µg/mL (≈ 5.32 µM) | IC50 [24]: 3.1 µg/mL (≈ 5.32 µM) | IC50 [25]: 3.1 µg/mL (≈ 5.32 µM) | Ratio IC50 [26]: 5.2

O=c1[nH]nc2n1-c1ccc(OCc3ccc(F)cc3)cc1OCC2
ED50 [27]: 26.3 mg/kg | selectivity ratio [28]: 12.6

COc1ccc(/C=N/n2c(S)nnc2CNC(=O)c2ccc(C)cc2)cc1OC
MIC [29]: 3.12 µg/mL (≈ 7.59 µM) | MIC [30]: 3.12 µg/mL (≈ 7.59 µM)

O=C(CCSc1nnc2n(Cc3ccccc3)c(=O)c3c4c(sc3n12)CCCC4)N1CCN(c2ccccc2)CC1
IC50 [31]: 6.12 µM

CCCOc1ccc(-c2csc3nncn23)cc1
ED50 [32]: 63.4 mg/kg | TD50 [32]: 106 mg/kg | selectivity ratio [28]: 1.9

CSc1nc(Cl)cc(Sc2nnc(-c3cc(C(F)(F)F)cc(C(F)(F)F)c3)[nH]2)n1
MIC [33]: 1.8 µM (≈ 0.849 µg/mL) | MIC [34]: 0.75 µg/mL (≈ 1.59 µM)

Cc1nc2[nH]cc(-c3n[nH]c(=S)n3-c3ccccc3)c(=O)n2n1
EC50 [35]: 18.6 µM

O=[N+]([O-])c1ncn(CCCCNS(=O)(=O)c2sccc2Cl)n1
MIC [2]: 3.13 µg/mL (≈ 8.56 µM)

O=C(CSc1nc2ccccc2n2cnnc12)Nc1ccc(S(=O)(=O)Nc2ccccn2)cc1
IC50 [14]: 0.97 µM

O=c1[nH]nc2n1-c1ccc(OCc3ccc(F)cc3)cc1SC2
ED50 [27]: 9.2 mg/kg | selectivity ratio [28]: 15.4

O=C(NCc1nnc(S)n1/N=C/c1ccc([N+](=O)[O-])cc1)c1ccccc1
MIC [29]: 3.12 µg/mL (≈ 8.17 µM) | MIC [30]: 3.12 µg/mL (≈ 8.17 µM)

— ChEMBL document CHEMBL5244255, “An insight on medicinal attributes of 1,2,4-triazoles” (Eur J Med Chem, 2020)
